These results are taken from patent publication US20020026053A1, “Novel 3-(substituted) -2- indolinones compounds and use thereof as inhibitors of protein kinase activity” (priority 1997, published 2002).

This experiment has as its system FLK-1 receptor. Nature of the experiment: FLK-1 Assay (cellular/catalytic ELISA, VEGF-stimulated phosphotyrosine). The arrangement: concentration or dose not given beside the values. It is filed as cell-based. The conditions noted are these: protocol P.110. In a few lines:
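NIH3T3 C7#3 cells engineered to express Flk-1 were serum-starved overnight (0.1% FBS), then exposed to compound for 2 h at 37 °C (final dilution 1:200, 0.5% DMSO) before VEGF stimulation. Lysates captured on anti-FLK-1 antiserum plates; phosphotyrosine detected by UB40 antibody/POD-ABTS ELISA versus untreated controls.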

As for `Cc1ccc(C)c(C=C2C(=O)Nc3ccc(CCCl)cc32)c1` [10737/G07], the “Flk Kinase % Inhibition (P.110)” value was 20.3%.

In the case of `O=C1Nc2ccc(CCCl)cc2C1=Cc1ccc2ccccc2c1` [10737/G08], the “Flk Kinase % Inhibition (P.110)” value came to 16.4%. Under `O=C1Nc2ccc(CCCl)cc2C1=Cc1ccc(Oc2ccccc2)cc1` [10737/G09] stands 15.2%; under `CC(C)(C)c1ccc(Oc2cccc(C=C3C(=O)Nc4ccc(CCCl)cc43)c2)cc1` [10737/G10], 13.3%. For `O=C1Nc2ccc(CCCl)cc2C1=Cc1cccc(Oc2cccc(C(F)(F)F)c2)c1` [10737/G11], the “Flk Kinase % Inhibition (P.110)” value amounted to 11.7%. Under `CCOc1ccc(C=C2C(=O)Nc3c(Br)cc(Br)c(C)c32)cc1` [10737/H02] stands 3.1%; under `Cc1ccc(C=C2C(=O)Nc3c(Br)cc(Br)c(C)c32)c(C)c1` [10737/H03], 3.2%; under `Cc1c(Br)cc(Br)c2c1C(=Cc1cc(F)ccc1F)C(=O)N2` [10737/H04], 11.6%. Under `Cc1c(Br)cc(Br)c2c1C(=Cc1cccc(F)c1F)C(=O)N2` [10737/H05] stands 9.9%; under `COc1ccc(C=C2C(=O)Nc3c(Br)cc(Br)c(C)c32)cc1F` [10737/H06], 5.8%.
